In the supplement of paper PMC13380429:

Legend:
Conditions in all cases: 72 h
HepG2 [1] = experiment: cell viability relative to DMSO; higher = less toxic
U2OS [2] = experiment: as above
Vero E6 [3] = experiment: as above
Calu-3 [4] = experiment: as above
Caco-2 [5] = experiment: as above
HepG2 [6] = experiment: drug sensitivity score (DSS) for viability; higher = more toxic; extreme values may be limits of the assay
U2OS [7] = experiment: as above
Vero E6 [8] = experiment: as above
Calu-3 [9] = experiment: as above
Caco-2 [10] = experiment: as above
HepG2 [11] = experiment: relative viability EC50 (midpoint between 100% and the lowest measured viability); higher = less toxic
U2OS [12] = experiment: as above
Vero E6 [13] = experiment: as above
Calu-3 [14] = experiment: as above
Caco-2 [15] = experiment: as above

Compound | cell viability (HepG2 [1]; 1 nM) [%] | cell viability (HepG2 [1]; 10 nM) [%] | cell viability (HepG2 [1]; 100 nM) [%] | cell viability (HepG2 [1]; 1000 nM) [%] | cell viability (HepG2 [1]; 10000 nM) [%] | cell viability (U2OS [2]; 1 nM) [%] | cell viability (U2OS [2]; 10 nM) [%] | cell viability (U2OS [2]; 100 nM) [%] | cell viability (U2OS [2]; 1000 nM) [%] | cell viability (U2OS [2]; 10000 nM) [%] | cell viability (Vero E6 [3]; 1 nM) [%] | cell viability (Vero E6 [3]; 10 nM) [%] | cell viability (Vero E6 [3]; 100 nM) [%] | cell viability (Vero E6 [3]; 1000 nM) [%] | cell viability (Vero E6 [3]; 10000 nM) [%] | cell viability (Calu-3 [4]; 1 nM) [%] | cell viability (Calu-3 [4]; 10 nM) [%] | cell viability (Calu-3 [4]; 100 nM) [%] | cell viability (Calu-3 [4]; 1000 nM) [%] | cell viability (Calu-3 [4]; 10000 nM) [%] | cell viability (Caco-2 [5]; 1 nM) [%] | cell viability (Caco-2 [5]; 10 nM) [%] | cell viability (Caco-2 [5]; 100 nM) [%] | cell viability (Caco-2 [5]; 1000 nM) [%] | cell viability (Caco-2 [5]; 10000 nM) [%] | drug sensitivity score (HepG2 [6]) | drug sensitivity score (U2OS [7]) | drug sensitivity score (Vero E6 [8]) | drug sensitivity score (Calu-3 [9]) | drug sensitivity score (Caco-2 [10]) | relative viability EC50 (HepG2 [11]) [µM] | relative viability EC50 (U2OS [12]) [µM] | relative viability EC50 (Vero E6 [13]) [µM] | relative viability EC50 (Calu-3 [14]) [µM] | relative viability EC50 (Caco-2 [15]) [µM]
CCc1nc2c(C)nc(C)cc2n1-c1ccc(CCNC(=O)NS(=O)(=O)c2ccc(C)cc2)cc1 [grapiprant] | 103 | 101 | 104 | 99.2 | 97.6 | 98 | 96.3 | 97.7 | 99.3 | 96.8 | 101 | 97.7 | 97.3 | 95.6 | 96.6 | 102 | 89.9 | 103 | 96.1 | 104 | 101 | 90.4 | 101 | 102 | 93.8 | 0 | 0 | 0 | 0 | 0 | > 10 | > 10 | > 10 | > 10 | > 10
C[C@H]1COc2c(C3(N)CC3)c(F)cc3c(=O)c(C(=O)O)cn1c23 [pazufloxacin] | 88.8 | 107 | 101 | 98.9 | 99.4 | 103 | 103 | 100 | 99.9 | 97.3 | 93.7 | 103 | 103 | 94.6 | 99.2 | 96.9 | 98.7 | 90.6 | 101 | 89.3 | 103 | 93.5 | 90.3 | 99.2 | 102 | 0 | 0 | 0 | 0 | 0 | > 10 | > 10 | > 10 | > 10 | > 10
CN(C)C(=O)Oc1cc(OC(=O)N(C)C)cc(C(O)CNC(C)(C)C)c1 (stereo not given) [bambuterol] | 96.1 | 97.2 | 99.1 | 96.9 | 95.6 | 96.4 | 93.5 | 95.5 | 101 | 104 | 99.8 | 97.9 | 93.1 | 90.3 | 101 | 95.8 | 98.6 | 99.2 | 89.4 | 117 | 97.7 | 94.5 | 89.6 | 103 | 104 | 0 | 0 | 0 | 0 | 0 | > 10 | > 10 | > 10 | > 10 | > 10
Cc1cc2ncc(C(=O)NCC(C)(C)NCC(=O)N3CCC[C@H]3C#N)cn2n1 [anagliptin] | 102 | 94.2 | 102 | 104 | 97.9 | 99.9 | 101 | 96.2 | 104 | 98.5 | 99.2 | 99.5 | 102 | 98.8 | 106 | 97.3 | 102 | 94.9 | 94.6 | 98.8 | 103 | 93.3 | 94.6 | 97.8 | 100 | 0 | 0 | 0 | 0 | 0 | > 10 | > 10 | > 10 | > 10 | > 10
CNC(=O)c1c(-c2ccc(F)cc2)oc2cc(N(CCO)S(C)(=O)=O)c(C3CC3)cc12 [nesbuvir] | 97.3 | 90 | 103 | 92.2 | 107 | 93.3 | 102 | 96.4 | 99.9 | 102 | 98.4 | 97 | 98.6 | 93.6 | 103 | 108 | 107 | 99.9 | 110 | 103 | 94 | 101 | 95 | 99 | 101 | 0 | 0 | 0 | 0 | 0 | > 10 | > 10 | > 10 | > 10 | > 10
C=CCCCCCCCCC(=O)[O][Zn][O]C(=O)CCCCCCCCC=C [zinc-undecylenate] | 102 | 98.8 | 99.3 | 100 | 92 | 97.7 | 98.8 | 98.4 | 95.1 | 99.1 | 105 | 95.9 | 94.8 | 98.5 | 93.9 | 95.7 | 100 | 101 | 95.6 | 116 | 94.4 | 96.3 | 98.2 | 96.6 | 86.9 | 0 | 0 | 0 | 0 | 0.3 | > 10 | > 10 | > 10 | > 10 | > 10
CS(=O)(=O)OCCCCOS(C)(=O)=O [busulfan] | 107 | 92.9 | 112 | 95.8 | 79.2 | 102 | 95.9 | 105 | 98.4 | 100 | 94.9 | 94.8 | 99.6 | 86.2 | 84.5 | 101 | 104 | 89.7 | 99.6 | 106 | 109 | 93.4 | 92.1 | 84.1 | 96.5 | 1.2 | 0 | 1.3 | 0 | 0.2 | > 10 | > 10 | > 10 | > 10 | > 10
Clc1ccc(C(Cn2ccnc2)OCc2csc3c(Cl)cccc23)c(Cl)c1 (stereo not given) [sertaconazole] | 116 | 96.8 | 102 | 105 | 100 | 94.1 | 95.4 | 98.9 | 91.4 | 88.6 | 102 | 102 | 105 | 105 | 99.5 | 106 | 96.1 | 106 | 95.1 | 96.1 | 97 | 101 | 95 | 95.6 | 85.4 | 0 | 0 | 0 | 0 | 0.1 | > 10 | > 10 | > 10 | > 10 | > 10
CCCCC(=O)O[C@]1(C(=O)CO)[C@@H](C)C[C@H]2[C@@H]3CCC4=CC(=O)C=C[C@]4(C)[C@@]3(F)[C@@H](O)C[C@@]21C [BETAMETHASONE VALERATE] | 107 | 114 | 90 | 107 | 76.4 | 95.8 | 96.2 | 95 | 94.8 | 92.4 | 105 | 102 | 95.4 | 91.1 | 95.6 | 105 | 101 | 95.2 | 93.7 | 117 | 103 | 86.2 | 113 | 110 | 96.1 | 0.6 | 0 | 0 | 0 | 0 | > 10 | > 10 | > 10 | > 10 | > 10
CC(C)(C)c1nc(-c2cccc(NS(=O)(=O)c3c(F)cccc3F)c2F)c(-c2ccnc(N)n2)s1 [dabrafenib] | 96.4 | 90.9 | 78.3 | 65.9 | 30.4 | 102 | 93.2 | 107 | 95.3 | 102 | 96.5 | 104 | 103 | 79.8 | 102 | 88 | 93.8 | 106 | 99.3 | 124 | 103 | 97.1 | 98.2 | 77.8 | 101 | 9.8 | 0 | 0 | 0 | 0 | 0.49 | > 10 | > 10 | > 10 | > 10
O=C(Nc1ccc(Cl)cc1)Nc1cccc(-c2cccc(N3CCCC3)n2)c1 [PSNCBAM-1] | 101 | 110 | 102 | 102 | 99.1 | 98.8 | 102 | 96.6 | 98.7 | 102 | 108 | 96.7 | 102 | 105 | 91.8 | 102 | 98.9 | 95 | 97.9 | 104 | 98.3 | 91.9 | 96.2 | 93.7 | 99.4 | 0 | 0 | 0 | 0 | 0 | > 10 | > 10 | > 10 | > 10 | > 10
CN1CCN(c2ccc(-c3cccc(CN4CCOCC4)c3)cc2NC(=O)c2c[nH]c(=O)cc2C(F)(F)F)CC1 [OICR-9429] | 108 | 98.7 | 99.7 | 95.8 | 95 | 102 | 98.2 | 99.2 | 97.4 | 100 | 99.1 | 101 | 98 | 100 | 95.1 | 97 | 108 | 98 | 104 | 88.3 | 106 | 97.7 | 94.1 | 92 | 98.2 | 0 | 0 | 0 | 0 | 0 | > 10 | > 10 | > 10 | > 10 | > 10
C[C@@H](Nc1cc(F)cc(F)c1)c1cc(C(=O)N(C)C)cc2c(=O)cc(N3CCOCC3)oc12 [AZD8186] | 101 | 92.2 | 96.5 | 92 | 75.7 | 96.2 | 97.3 | 96.8 | 87.9 | 76.9 | 96.8 | 95.6 | 89.2 | 78.9 | 75 | 88.4 | 100 | 82.8 | 76.4 | 47.8 | 90.7 | 78.2 | 84.1 | 75.3 | 48 | 1.5 | 1.7 | 3.8 | 6.4 | 8.8 | > 10 | > 10 | > 10 | 0.6 | 0.2
